The test system of the assay is chicken dorsal root ganglion neurons. Nature of the assay: Neuronal viability assay (calcein-AM) in primary culture of chicken dorsal root ganglion neurons. Type of assay: cell-based, White Leghorn chick embryos. Particulars: Gallus gallus, DRG neuron, 48 h; survival of chick DRG neurons after two days of incubation; 0% = no neurotrophic factor, 100% = 10 ng/ml NGF; read-out: [C1] DRG assay SCORE (pIC50 value scored) (converted). The source says:
This assay is based on a fluorimetric Calcein-AM measurement and addresses the functional response of neurons as a quantitative measure of survival.
Dorsal root ganglia were dissected from White Leghorn chick embryos at embryonic day 10 as described previously (Skaper S. D. and Varon S. (1986) Brain Research 389, 39-46). The ganglia were trypsinised and dissociated by mild trituration in a HBSS buffer supplemented with 0.6% glucose and 0.08% trypsin. To remove non-neuronal cells by differential attachment to culture plastic, the ganglionic cell suspension was lo diluted to 2.5×10^5 cells/ml and seeded on tissue culture plastic dishes at 10 ml per 100 mm dish. After 2 h preplating, unattached neurons were collected and resuspended into Basal Eagle Medium containing 10% FCS. To remove cell aggregates, the cell suspension was passed through a nylon mesh (50 μM) pore diameter. Neuron-enriched cell suspension was plated at 5×10^4 cells/ml into poly-L-ornithine (100 μg/ml) and laminine (1 μg/ml) coated multiwell 96 plates. Compounds were dissolved in dimethyl sulfoxide and kept as a stock at −20° C. NGF and compounds were diluted in the culture medium and added to the cells immediately after plating. The final concentration of dimethyl sulfoxide in the test medium was 0.1%. After two days of incubation, neuronal viability was assessed with calcein-AM.
Neuronal viability assay using calcein AM was performed as previously described (Bozyczko-Coyne D., McKenna B. W., Connors T. J., and Neff N. T. (1993) Journal of Neuroscience Methods 50, 205-216). For the assay, calcein-AM was diluted in PBS to the final concentration (1 μM). […] Following the incubation, reading was done in a Cytofluor II at an excitation wavelength of 485 nm and an emission wavelength of 530 nm. […]
The drugs to be tested were taken from a stock solution and tested at a final concentration ranging from […] to 3.10^−9M. From the thus obtained dose response curves, the pIC50 value was calculated and scored as follows; Score 1=pIC50 value<6, Score 2=pIC50 value in the range of 6 to 8, Score 3=pIC50 value>8.

We go through three compounds from patent publication US20070299109A1, “Dimeric Compounds Of Piperidine, Piperazine Or Morpholine Or Their 7-Membered Analogs Suitable For The Treatment Of Neurodegenerative Disorders” (priority 2004, published 2007).

Structures are written as SMILES. Where only a bound is given, the exact number is not on record here.

In the case of `CN(c1nc2ccccc2s1)C1CCN(C(=O)NC2CCC(CC3CCC(NC(=O)N4CCC(N(C)c5nc6ccccc6s5)CC4)CC3)CC2)CC1` (stereo not drawn) [Compound 9], the IC50 was 10 to 1000 nM.

As to `CN(c1nc2ccc(F)cc2s1)C1CCN(C(=O)CCCCCCCC(=O)N2CCC(N(C)c3nc4ccc(F)cc4s3)CC2)CC1` [Compound 5], the IC50 is 10 to 1000 nM.

For the compound `c1ccc2c(c1)CCN2C1CCN(CCCN2CCC(N3CCc4ccccc43)CC2)CC1` [Compound 47], the IC50 is > 1000 nM.
